In the supplement of paper PMC6045584:
± gives the standard deviation of the averaged measurements.

What was measured:
[1] = compound: CCC1=C[C@@H]2CN(C1)Cc1c([nH]c3ccccc13)[C@@](C(=O)OC)(c1cc3c(cc1OC)N(C)[C@H]1[C@@](O)(C(=O)OC)[C@H](OC(C)=O)[C@]4(CC)C=CCN5CC[C@]31[C@@H]54)C2 [VINORELBINE]; experiment: surviving fraction relative to DMSO-only wells; higher = less growth inhibition; conditions: exposure time: 5 days
Outline: (§1)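 Tumour cell lines were grown to log phase and seeded at 250–500 cells per well in 384-well plates. They were exposed continuously to inhibitors at 0.5, 1, 5, 10, 50, 100, 500 and 1000 nM for five days, beginning 24 hours after seeding. Surviving fraction is CellTiter-Glo luminescence normalised to the median of DMSO-only wells.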

[2] = compound: CCN(CC)CCNC(=O)c1c(C)[nH]c(/C=C2\C(=O)Nc3ccc(F)cc32)c1C [SUNITINIB]; experiment: as above; conditions: exposure time: 5 days
Outline: as §1

| Test System | surviving fraction ([1]; 0.5 nM) | surviving fraction ([1]; 1 nM) | surviving fraction ([1]; 5 nM) | surviving fraction ([1]; 10 nM) | surviving fraction ([1]; 50 nM) | surviving fraction ([1]; 100 nM) | surviving fraction ([1]; 500 nM) | surviving fraction ([1]; 1000 nM) | surviving fraction ([2]; 0.5 nM) | surviving fraction ([2]; 1 nM) | surviving fraction ([2]; 50 nM) | surviving fraction ([2]; 100 nM) | surviving fraction ([2]; 500 nM) | surviving fraction ([2]; 1000 nM) | surviving fraction ([2]; 5 nM) | surviving fraction ([2]; 10 nM) |
| --- | --- | --- | --- | --- | --- | --- | --- | --- | --- | --- | --- | --- | --- | --- | --- | --- |
| 22RV1 PROSTATE | 1.04 ± 0.039 | 1.01 ± 0.057 | 0.916 ± 0.13 | 0.655 ± 0.12 | 0.12 ± 0.028 | 0.0623 ± 0.0038 | 0.0587 ± 0.012 | 0.06367 ± 0.00058 | 0.975 ± 0.028 | 0.952 ± 0.021 | 0.937 ± 0.1 | 0.932 ± 0.027 | 0.739 ± 0.049 | 0.41 ± 0.029 | – | – |
| 93VU HEADNECK | 1.02 ± 0.11 | 1.02 ± 0.19 | 1.04 ± 0.034 | 1.05 ± 0.075 | 0.554 ± 0.011 | 0.292 ± 0.03 | 0.141 ± 0.015 | 0.145 ± 0.022 | 0.817 ± 0.07 | 0.819 ± 0.059 | 1.11 ± 0.055 | 0.93 ± 0.057 | 0.261 ± 0.026 | 0.158 ± 0.025 | 0.85 ± 0.03 | 0.823 ± 0.078 |
| 143B BONE | 1 ± 0.02 | 1.016 ± 0.0057 | 1.016 ± 0.0071 | 0.864 ± 0.024 | 0.229 ± 0.0071 | 0.1625 ± 0.00071 | 0.039 ± 0.0028 | 0.0345 ± 0.00071 | 0.982 ± 0.044 | 1.01 ± 0.026 | 1.01 ± 0.019 | 1.008 ± 0.0042 | 0.824 ± 0.067 | 0.461 ± 0.055 | 1.01 ± 0.022 | 1.02 ± 0.035 |
| A549 LUNG | 0.982 ± 0.049 | 0.989 ± 0.049 | 0.979 ± 0.053 | 0.968 ± 0.045 | 0.461 ± 0.034 | 0.308 ± 0.023 | 0.228 ± 0.0085 | 0.274 ± 0.015 | 0.922 ± 0.021 | 0.907 ± 0.029 | 0.991 ± 0.026 | – | 1.04 ± 0.014 | 1.03 ± 0.02 | 0.903 ± 0.013 | 0.89 ± 0.031 |
| ASKA SYNOVIAL | 0.912 ± 0.086 | 0.846 ± 0.075 | 0.43 ± 0.029 | 0.306 ± 0.015 | 0.247 ± 0.026 | 0.229 ± 0.02 | 0.257 ± 0.03 | 0.334 ± 0.022 | 0.864 ± 0.079 | 0.768 ± 0.059 | 0.867 ± 0.043 | 0.659 ± 0.04 | 0.441 ± 0.034 | 0.104 ± 0.0093 | 0.858 ± 0.028 | 0.328 ± 0.056 |
| BT20 BREAST | 1.16 ± 0.21 | 0.875 ± 0.22 | 0.973 ± 0.076 | 0.709 ± 0.18 | 0.0683 ± 0.025 | 0.055 ± 0.019 | 0.106 ± 0.029 | 0.09 ± 0.03 | 0.794 ± 0.14 | 0.732 ± 0.05 | 1 ± 0.16 | 1.23 ± 0.23 | 1.31 ± 0.2 | 1.21 ± 0.16 | 0.757 ± 0.081 | 0.783 ± 0.14 |
| BT549 BREAST | 1.13 ± 0.039 | 1.21 ± 0.15 | 0.934 ± 0.12 | 0.618 ± 0.099 | 0.146 ± 0.037 | 0.132 ± 0.023 | 0.154 ± 0.043 | 0.158 ± 0.018 | 0.8 ± 0.11 | 0.861 ± 0.048 | 1.11 ± 0.13 | 1.12 ± 0.16 | 1.19 ± 0.11 | 0.785 ± 0.069 | 0.854 ± 0.065 | 0.794 ± 0.13 |
| CADOES1 SOFT TISSUE | 0.972 ± 0.19 | 0.882 ± 0.043 | 0.928 ± 0.12 | 0.84 ± 0.073 | 0.877 ± 0.12 | 0.825 ± 0.038 | 0.201 ± 0.013 | 0.0913 ± 0.0064 | – | 0.976 ± 0.12 | 0.885 ± 0.086 | 1.03 ± 0.032 | – | 0.609 ± 0.11 | 0.892 ± 0.044 | 0.967 ± 0.083 |
| CAL51 BREAST | 0.926 ± 0.047 | 0.945 ± 0.016 | 0.736 ± 0.035 | 0.452 ± 0.011 | 0.0567 ± 0.0027 | 0.045 ± 0.0027 | 0.0317 ± 0.0015 | 0.0318 ± 0.0033 | 0.886 ± 0.047 | 0.895 ± 0.012 | – | 1.01 ± 0.035 | 0.52 ± 0.031 | 0.202 ± 0.031 | 0.94 ± 0.011 | 0.934 ± 0.053 |
| CAL120 BREAST | 0.969 ± 0.032 | 0.9515 ± 0.0038 | 0.782 ± 0.015 | 0.623 ± 0.026 | 0.169 ± 0.017 | 0.157 ± 0.0098 | 0.154 ± 0.02 | 0.14 ± 0.0076 | 0.881 ± 0.021 | 0.882 ± 0.036 | 0.891 ± 0.023 | 0.891 ± 0.038 | 0.64 ± 0.039 | 0.386 ± 0.037 | 0.876 ± 0.047 | – |
| CASKI CERVIX | 0.919 ± 0.041 | 0.911 ± 0.046 | 0.702 ± 0.014 | 0.188 ± 0.027 | 0.0597 ± 0.0076 | 0.087 ± 0.005 | 0.106 ± 0.012 | 0.1 ± 0.0083 | 0.757 ± 0.041 | 0.731 ± 0.072 | 0.891 ± 0.088 | 0.717 ± 0.039 | 0.166 ± 0.0025 | 0.0627 ± 0.004 | 0.792 ± 0.052 | 0.763 ± 0.064 |
| CHLA90 AUTONOMIC GANGLIA | 1.009 ± 0.01 | 1.05 ± 0.036 | 0.951 ± 0.058 | 0.768 ± 0.011 | 0.177 ± 0.023 | 0.105 ± 0.012 | 0.0883 ± 0.012 | 0.0917 ± 0.0061 | 0.885 ± 0.043 | 0.803 ± 0.062 | – | 0.776 ± 0.047 | 0.779 ± 0.015 | 0.201 ± 0.02 | 0.805 ± 0.025 | 0.248 ± 0.019 |
| CME SYNOVIAL | 1.11 ± 0.17 | 1.09 ± 0.11 | 1.21 ± 0.11 | 1.08 ± 0.12 | 0.488 ± 0.098 | 0.355 ± 0.085 | 0.275 ± 0.039 | 0.333 ± 0.033 | 0.928 ± 0.17 | 0.551 ± 0.019 | – | 0.82 ± 0.032 | 0.767 ± 0.1 | 0.0447 ± 0.0074 | – | 0.036 ± 0.0027 |
| COLO320DM LARGE INTESTINE | 1 ± 0.036 | 1.08 ± 0.059 | 1.06 ± 0.12 | 1.12 ± 0.088 | 1.09 ± 0.047 | 0.9883 ± 0.006 | 0.534 ± 0.022 | 0.293 ± 0.012 | – | 0.921 ± 0.045 | 0.929 ± 0.057 | 0.871 ± 0.075 | 0.324 ± 0.026 | 0.115 ± 0.011 | 0.957 ± 0.063 | 0.369 ± 0.055 |
| DU4475 BREAST | 0.973 ± 0.088 | 1.01 ± 0.025 | 1.01 ± 0.14 | 0.906 ± 0.095 | 0.403 ± 0.091 | 0.211 ± 0.027 | 0.0703 ± 0.016 | 0.051 ± 0.015 | 0.742 ± 0.17 | 0.797 ± 0.12 | 0.668 ± 0.12 | 0.649 ± 0.21 | 0.428 ± 0.18 | 0.1 ± 0.029 | 0.716 ± 0.14 | 0.771 ± 0.18 |
| H23 LUNG | 1.03 ± 0.046 | 0.9937 ± 0.0096 | 1.04 ± 0.039 | 0.84 ± 0.014 | 0.205 ± 0.015 | 0.173 ± 0.011 | 0.22 ± 0.002 | 0.1743 ± 0.0015 | 0.953 ± 0.023 | 0.918 ± 0.013 | – | 0.829 ± 0.014 | 0.598 ± 0.06 | 0.368 ± 0.021 | – | 0.885 ± 0.045 |
| HCC38 BREAST | 1.19 ± 0.19 | 1.12 ± 0.3 | 1.24 ± 0.14 | 1.06 ± 0.12 | 0.223 ± 0.039 | 0.216 ± 0.029 | 0.334 ± 0.06 | 0.251 ± 0.0055 | 0.845 ± 0.24 | 0.893 ± 0.22 | 1.16 ± 0.1 | 1.18 ± 0.11 | 1.04 ± 0.22 | 0.76 ± 0.21 | 0.966 ± 0.15 | – |
| HCC70 BREAST | 1.04 ± 0.032 | 1.01 ± 0.014 | 0.937 ± 0.042 | 0.752 ± 0.029 | 0.108 ± 0.012 | 0.129 ± 0.013 | 0.131 ± 0.015 | 0.132 ± 0.02 | 1.01 ± 0.029 | – | – | – | 1.15 ± 0.11 | – | 1 ± 0.096 | 0.904 ± 0.045 |
